Columns and labels:
[1] = tested on: DMS-114 (Small Cell Lung Carcinoma); assay: Bliss excess, mean over the matrix (fraction); higher = more synergy
How it was run: (§1)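 Bliss excess equals the observed combination effect minus the expected value EA + EB − EA·EB, where EA and EB are the effects of each agent alone. Combination Emax is the second-highest inhibition within the matrix. Inhibition was scaled from CellTiter-Glo 2.0 luminescence, with 0 set by vehicle wells and 1 by blank wells, after 72 hours of two-drug dosing of cells plated in 1536-well plates.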

[2] = tested on: KP-3 (Pancreatic Carcinoma); assay: combination Emax (second highest fraction inhibited in the dose matrix, 72 h); higher = more inhibition; extreme values may be limits of the assay
How it was run: as §1

[3] = tested on: VMRC-RCZ (Kidney Carcinoma); assay: as above
How it was run: as §1

[4] = tested on: NCI-H520 (Squamous Cell Lung Carcinoma); assay: as above
How it was run: as §1

[5] = tested on: NCI-H3122 (Lung Adenocarcinoma); assay: as above
How it was run: as §1

[6] = tested on: MN-60 (B-Lymphoblastic Leukemia); assay: as above
How it was run: as §1

[7] = tested on: COR-L279 (Small Cell Lung Carcinoma); assay: as above
How it was run: as §1

[8] = tested on: SK-GT-4 (Esophageal Adenocarcinoma); assay: as above
How it was run: as §1

[9] = tested on: NCI-H929 (Plasma Cell Myeloma); assay: as above
How it was run: as §1

[10] = tested on: DMS-114 (Small Cell Lung Carcinoma); assay: as above
How it was run: as §1

[11] = tested on: SJSA-1 (Osteosarcoma); assay: as above
How it was run: as §1

[12] = tested on: KYSE-270 (Esophageal Squamous Cell Carcinoma); assay: as above
How it was run: as §1

[13] = tested on: CW-2 (Colorectal Carcinoma); assay: as above
How it was run: as §1

[14] = tested on: M059J (Glioblastoma); assay: as above
How it was run: as §1

[15] = tested on: ST486 (Burkitt's Lymphoma); assay: as above
How it was run: as §1

[16] = tested on: KU812 (Chronic Myelogenous Leukemia); assay: as above
How it was run: as §1

[17] = tested on: NCCIT (Other Solid Carcinomas); assay: as above
How it was run: as §1

[18] = tested on: NCI-H526 (Small Cell Lung Carcinoma); assay: as above
How it was run: as §1

[19] = tested on: MOG-G-CCM (Low Grade Glioma); assay: as above
How it was run: as §1

[20] = tested on: NCI-H2731 (Mesothelioma); assay: as above
How it was run: as §1

| SMILES | Bliss excess [1] | combination Emax [2] | combination Emax [3] | combination Emax [4] | combination Emax [5] | combination Emax [6] | combination Emax [7] | combination Emax [8] | combination Emax [9] | combination Emax [10] | combination Emax [11] | combination Emax [12] | combination Emax [13] | combination Emax [14] | combination Emax [15] | combination Emax [16] | combination Emax [17] | combination Emax [18] | combination Emax [19] | combination Emax [20] |
| --- | --- | --- | --- | --- | --- | --- | --- | --- | --- | --- | --- | --- | --- | --- | --- | --- | --- | --- | --- | --- |
| C=CCn1c(=O)c2cnc(Nc3ccc(N4CCN(C)CC4)cc3)nc2n1-c1cccc(C(C)(C)O)n1 [AZD1775] + CCc1c2c(nc3ccc(O)cc13)-c1cc3c(c(=O)n1C2)COC(=O)[C@]3(O)CC [SN-38] (first compound max 1 µM, partner max 0.3 µM) | -0.0439 | 0.397 | 0.462 | 0.808 | 0.853 | 0.818 | 1 | 0.486 | 0.927 | 0.655 | 0.706 | 0.981 | 0.625 | 0.891 | 0.997 | 0.87 | 0.841 | 1 | 0.703 | 0.496 |
| C[C@@H](Nc1cc(F)cc(F)c1)c1cc(C(=O)N(C)C)cc2c(=O)cc(N3CCOCC3)oc12 [AZD8186] + C1CN(CCC1(C(=O)N[C@@H](CCO)C2=CC=C(C=C2)Cl)N)C3=NC=NC4=C3C=CN4 [AZD5363] (first compound max 10 µM, 7x7, partner max 10 µM) | 0.0545 | 0.312 | 0.386 | 0.564 | 0.522 | 0.193 | 0.679 | 0.457 | 1 | 0.472 | 0.426 | 0.347 | 0.275 | 0.408 | 0.151 | 0.161 | 0.499 | 0.147 | 0.581 | 0.305 |
| N#Cc1cnc(Nc2cc(NC[C@H]3CNCCO3)c(C(F)(F)F)cn2)cn1 [SRA737] + O=c1[nH]cc(F)c(=O)[nH]1 [5-Fluorouracil] (first compound max 10 µM, 7x7, partner max 20 µM) | -0.0757 | 0.307 | 0.354 | 0.588 | 0.611 | 0.436 | 0.821 | 0.407 | 0.768 | 0 | 0.403 | 0.99 | 0.403 | 0.315 | 0.928 | 0.606 | 0.458 | 0.855 | 0.419 | 0.172 |
| Cc1c2c(nn1C)CSCc1cc(n(C)n1)CSc1cc(c3ccccc3c1)OCCCc1c(C(=O)O)n(C)c3c-2c(Cl)ccc13 [AZD5991] + CS(=O)(=O)CCNCc1ccc(-c2ccc3ncnc(Nc4ccc(OCc5cccc(F)c5)c(Cl)c4)c3c2)o1 [Lapatinib] (first compound max 1 µM, 7x7, partner max 10 µM) | -0.0358 | 0.303 | 0.209 | 0.435 | 0.392 | 0.158 | 0.903 | 0.379 | 1 | 0.608 | 0.196 | 0.959 | 0.531 | 0.456 | 0.758 | 0.867 | 0.635 | 0.469 | 0.358 | 0.44 |

— the supplement of paper PMC11061612
